This note sets out measurements from ChEMBL document CHEMBL1649297, “Mutations in ribosomal protein L3 are associated with oxazolidinone resistance in staphylococci of clinical origin” (2009).

≈ marks a conversion by molar mass, not a printed value.

Common to all, as to format: functional
In assay [1] the test system is Staphylococcus epidermidis. The assay can be described thus: Antibacterial activity against Staphylococcus epidermidis 1653059 harboring rplC G469A/C470G, L3 Ala157Arg and 23S rRNA G2447T mutant by CLSI broth microdilution assay. On the technique in general: Broth dilution looks for growth in wells or tubes with falling amounts of substance.
In assay [2] the test system is Staphylococcus aureus. The assay is described as follows: Antibacterial activity against Staphylococcus aureus NARSA NRS127 harboring rplC T433 to T435 and L3 Ser145 deletion mutant by CLSI broth microdilution assay.
The subject of assay [3] is Staphylococcus aureus. The assay is described as follows: Antibacterial activity against methicillin-susceptible Staphylococcus aureus ATCC 29213 by CLSI broth microdilution assay.
Assay [4] has as its system Staphylococcus epidermidis. The assay can be described thus: Antibacterial activity against […] Staphylococcus epidermidis ATCC 12228 by CLSI broth microdilution assay.

Take `Cn1nnc(-c2ccc(-c3ccc(N4C[C@H](CO)OC4=O)cc3F)cn2)n1` [TEDIZOLID]: the MIC in assay [1] was determined as 16 µg/mL (≈ 43.2 µM); in the assay on Staphylococcus aureus [2] it was 1 µg/mL (≈ 2.7 µM); against Staphylococcus aureus [3], 0.5 µg/mL (≈ 1.35 µM); in assay [4] it was 0.25 µg/mL (≈ 0.675 µM).
In the case of `C=C[C@]1(C)C[C@@H](OC(=O)CSCCN(CC)CC)[C@]2(C)[C@H](C)CC[C@]3(CCC(=O)[C@H]32)[C@@H](C)[C@@H]1O` [TIAMULIN], the MIC in assay [1] stood at 8 µg/mL (≈ 16.2 µM); against Staphylococcus aureus [2] it was 4 µg/mL (≈ 8.1 µM); with Staphylococcus aureus [3] it was 1 µg/mL (≈ 2.03 µM); in assay [4], 0.5 µg/mL (≈ 1.01 µM).
As to `O=C(N[C@H](CO)[C@H](O)c1ccc([N+](=O)[O-])cc1)C(Cl)Cl` [CHLORAMPHENICOL], the MIC in assay [1] turned out to be 2 µg/mL (≈ 6.19 µM); in the assay with Staphylococcus aureus [2], 8 µg/mL (≈ 24.8 µM); against Staphylococcus aureus [3], 8 µg/mL (≈ 24.8 µM); in assay [4], 1 µg/mL (≈ 3.09 µM).
As to `CC(=O)NC[C@H]1CN(c2ccc(N3CCOCC3)c(F)c2)C(=O)O1` [LINEZOLID], the MIC in assay [1] was found to be 256 µg/mL (≈ 759 µM); in the assay on Staphylococcus aureus [2], 8 µg/mL (≈ 23.7 µM); in assay [4] it was 1 µg/mL (≈ 2.96 µM).

By MIC is commonly meant the smallest concentration in the dilution series that meets the test's criterion for growth inhibition. A lower MIC goes with a more susceptible organism.
